In patent US11439625B2, “Combination therapy for proliferative diseases” (Avexxin AS, priority 2016, dated 2022):

Tested on: MDA-MB-468 cell line
Assay: Resazurin viability assay
Format: cell-based
Details: co-treatment with BEZ235, sub-toxic doses combined, 24 hrs, MDA-MB-468 cells (FIG. 1)
Protocol: Cell Culture. The MDA-MB-468 cell line was from ATCC. This cell line was established from a pleural effusion of patient with metastatic breast adenocarcinoma. The cells were maintained in RPMI medium supplemented with 10% (v/v) FBS, 0.3 mg/mL L-glutamine, and 0.1 mg/mL gentamicin at 37° C. in 5% CO2. Sub-culture using trypsin-EDTA was performed every 3-4 days with a split ratio of 1:3-1:6 to ensure actively proliferating cells.
Resazurin Viability Assay. Cells were seeded in fully supplemented medium at a density of 7 000 cells per well in 96 well plates. After 24 hrs of cultivation, when the cells were ˜60% confluent, the medium was replaced with serum free medium to ensure synchronization of the cells and to increase cell sensitivity to treatment. Following 16 hrs of serum starvation, the medium was replaced with fresh serum free medium with or without Compounds 1 and 2 (Avexxin, Norway), and NVP-BEZ235 (Cayman Chemicals, US) or solvent (DMSO, Sigma Aldrich, US). The cells were observed under the microscope to evaluate possible morphology changes and signs of stress before the addition of resazurin according to the manufacturers instructions (RnD Systems, UK). Resazurin was metabolized for 2 hrs (37° C., 5% CO2) before fluorescence was read at 544 nm excitation and 590 nm emission wavelengths (BioTek Synergy HT).

CCCCCCCOc1ccc(OCC(=O)c2nc(C(=O)OC)cs2)cc1 [Compound 1]
synergistic effects on breast cancer cell viability compared to each inhibitor alone: synergistic effects
synergistic effects on breast cancer cell viability compared to each inhibitor alone (listed as compound 1): the synergistic effect is pronounced
